Article PMC3863987 (Journal of medicinal chemistry, 2012)

What was measured:
Solubility = assay type: physicochemical; details: ethyl ester in position 3 in place of the aliphatic chain
recombinant P. vivax NMT = molecular target: T1, recombinant P. vivax NMT (Plasmodium vivax, UniProt A5K1A2); experiment: Fluorogenic NMT enzyme assay, P. vivax NMT; assay type: biochemical
T1 sequence (A5K1A2 1-410): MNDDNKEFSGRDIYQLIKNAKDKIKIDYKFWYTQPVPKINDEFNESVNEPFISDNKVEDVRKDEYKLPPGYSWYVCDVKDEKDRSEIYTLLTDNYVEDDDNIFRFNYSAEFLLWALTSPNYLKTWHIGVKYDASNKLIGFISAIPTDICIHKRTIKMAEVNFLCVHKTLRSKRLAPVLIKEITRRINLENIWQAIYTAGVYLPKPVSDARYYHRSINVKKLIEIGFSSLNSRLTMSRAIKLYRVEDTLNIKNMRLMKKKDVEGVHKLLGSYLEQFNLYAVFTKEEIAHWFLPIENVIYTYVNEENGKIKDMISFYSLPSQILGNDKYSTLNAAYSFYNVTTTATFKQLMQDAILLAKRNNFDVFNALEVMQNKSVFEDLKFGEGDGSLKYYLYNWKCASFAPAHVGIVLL

[1] = substrate: C[C@H](NC(=O)[C@H](CC(=O)O)NC(=O)[C@H](CCCCN)NC(=O)[C@@H]1CCCN1C(=O)[C@H](CCCCN)NC(=O)[C@H](CO)NC(=O)[C@H](CCCCN)NC(=O)[C@H](CC(N)=O)NC(=O)[C@H](CO)NC(=O)CN)C(=O)N[C@@H](CO)C(=O)N[C@@H](CCC(N)=O)C(=O)N[C@@H](CCCNC(=N)N)C(=O)N[C@@H](CCCNC(=N)N)C(=O)N[C@@H](CCCNC(=N)N)C(N)=O; experiment: Fluorogenic NMT enzyme assay, P. vivax NMT; assay type: biochemical, Plasmodium vivax; details: other: peptide substrate for the PvNMT assay, in assay conditions

CCOC(=O)c1cnc2ccc(OC)cc2c1SCCC#N [Compound 7]
solubility (in words) (Solubility): greatly improved solubility

CCCCc1c(C)nc2ccc(OC)cc2c1SCCC#N.Cl [Compound 1, 3-butyl-4-((2-cyanoethyl)thio)-6-methoxy-2-methyl-quinoline]
inhibitory activity against PvNMT (in words) (recombinant P. vivax NMT): micromolar IC50

CCOC(=O)c1c(C)nc2ccccc2c1NCC#N.Cl [Compound 17]
inhibitory activity against PvNMT (in words) (recombinant P. vivax NMT): complete loss of activity

B1: recombinant P. vivax NMT (Plasmodium vivax Sal-1) (protein)
chain: MNDDNKEFSGRDIYQLIKNAKDKIKIDYKFWYTQPVPKINDEFNESVNEPFISDNKVEDVRKDEYKLPPGYSWYVCDVKDEKDRSEIYTLLTDNYVEDDDNIFRFNYSAEFLLWALTSPNYLKTWHIGVKYDASNKLIGFISAIPTDICIHKRTIKMAEVNFLCVHKTLRSKRLAPVLIKEITRRINLENIWQAIYTAGVYLPKPVSDARYYHRSINVKKLIEIGFSSLNSRLTMSRAIKLYRVEDTLNIKNMRLMKKKDVEGVHKLLGSYLEQFNLYAVFTKEEIAHWFLPIENVIYTYVNEENGKIKDMISFYSLPSQILGNDKYSTLNAAYSFYNVTTTATFKQLMQDAILLAKRNNFDVFNALEVMQNKSVFEDLKFGEGDGSLKYYLYNWKCASFAPAHVGIVLL
Km [1]: 5.71 ± 0.6 µM
